Drawing on patent publication US20050009840A1 (SUGEN, INC., priority 2003, published 2005), this text covers Ki and inhibition for 58 compounds.

Usually Ki stands for a measure of affinity in units of concentration, obtained from inhibition or displacement. In general, inhibition refers to the change of the read-out against control, counted positive when it falls.

The target of one experiment is T1, HGFR (Homo sapiens, UniProt P08581).
T1 construct: purchased Upstate 14-526
T1 sequence (P08581 974-1390 limits assumed): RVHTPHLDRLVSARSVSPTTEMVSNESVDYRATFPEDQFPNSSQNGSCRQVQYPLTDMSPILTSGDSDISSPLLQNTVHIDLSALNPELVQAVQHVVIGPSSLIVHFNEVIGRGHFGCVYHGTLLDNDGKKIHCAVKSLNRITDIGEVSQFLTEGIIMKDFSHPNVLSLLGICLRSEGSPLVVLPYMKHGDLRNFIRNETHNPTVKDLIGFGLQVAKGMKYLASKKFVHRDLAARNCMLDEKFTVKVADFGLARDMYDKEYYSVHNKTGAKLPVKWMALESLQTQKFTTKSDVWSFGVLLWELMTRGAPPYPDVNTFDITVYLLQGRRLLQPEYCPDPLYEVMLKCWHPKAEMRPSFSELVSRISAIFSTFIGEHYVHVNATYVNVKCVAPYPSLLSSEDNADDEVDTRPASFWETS
The experiment can be described thus: HGFR continuous-coupled spectrophotometric assay. The format is biochemical. The following applies: Table 3, column 'Ki (μM) or I (%)': cells without % sign; read-out: Ki.
`CC(Oc1cc(-c2ccc(O)nc2)cnc1N)c1c(Cl)ccc(F)c1Cl` (stereo not shown) [Example I-643, 6′-Amino-5′-[1-(2,6-dichloro-3-fluoro-phenyl)-ethoxy]-1H-[3,3′]-bipyridinyl-6-one]: the Ki came out at 0.0432 µM.

On to `CC(Oc1cc(-c2cncc(Br)c2)cnc1N)c1c(Cl)ccc(F)c1Cl` (stereo not shown) [Example I-644, 5′-Bromo-5-[1-(2,6-dichloro-3-fluoro-phenyl)-ethoxy]-[3,3′]bipyridinyl-6-ylamine], for which the Ki turned out to be 0.196 µM.

As to `CC(Oc1cc(-c2ccc(N(C)C)cc2)cnc1N)c1c(Cl)ccc(F)c1Cl` (stereo not shown) [Example I-645, 3-[1-(2,6-Dichloro-3-fluoro-phenyl)-ethoxy]-5-(4-dimethylamino-phenyl)-pyridin-2-ylamine], the inhibition constant (Ki) is 0.157 µM. On the same count and under the same terms, with `COc1ncccc1-c1cnc(N)c(OC(C)c2c(Cl)ccc(F)c2Cl)c1` (stereo not shown) [Example I-646, 5-[1-(2,6-Dichloro-3-fluoro-phenyl)-ethoxy]-2′-methoxy-[3,3′]bipyridinyl-6-ylamine] the figure was 0.099 µM. Still for that read-out and setting: then `CC(Oc1cc(-c2ccc3[nH]ccc3c2)cnc1N)c1c(Cl)ccc(F)c1Cl` (stereo not shown) [Example I-647, 3-[1-(2,6-Dichloro-3-fluoro-phenyl)-ethoxy]-5-(1H-indol-5-yl)-pyridin-2-ylamine], with 0.166 µM. On the same count and under the same terms, with `CCC(Oc1cc(-c2ccc(C(=O)N3C[C@@H](C)N[C@@H](C)C3)cc2)cnc1N)c1c(Cl)cccc1Cl` (stereo partly shown) [Example I-648, (4-{6-Amino-5-[1-(2,6-dichloro-phenyl)-propoxy]-pyridin-3-yl}-phenyl)-(3,5-dimethyl-piperazin-1-yl)-methanone] the figure was 0.553 µM.

Staying with this experiment, now noted: at 50 nM; Table 5, library procedure 40; read-out: % inhibition (percent c-MET inhibition).
For `CC(Oc1cc(-c2ccc(C(=O)NCCC3CCCN3C)cc2)cnc1N)c1c(Cl)ccc(F)c1Cl` [Example L-1], the inhibition at 0.05 µM worked out at 58%. As for `CC(Oc1cc(-c2ccc(C(=O)NCCCN3CCOCC3)cc2)cnc1N)c1c(Cl)ccc(F)c1Cl` [Example L-2], the inhibition at 0.05 µM turned out to be 59%. Regarding `CC(Oc1cc(-c2ccc(C(=O)NCCCN3CCN(C)CC3)cc2)cnc1N)c1c(Cl)ccc(F)c1Cl` [Example L-3], the inhibition at 0.05 µM is 63%. Consider `CC(Oc1cc(-c2ccc(C(=O)NC3CCN(Cc4ccccc4)CC3)cc2)cnc1N)c1c(Cl)ccc(F)c1Cl` [Example L-4], for which the inhibition at 0.05 µM came to 47%.

As for `CC(Oc1cc(-c2ccc(C(=O)NCCCO)cc2)cnc1N)c1c(Cl)ccc(F)c1Cl` [Example L-5], the inhibition at 0.05 µM was determined as 68%. Same read-out and setting: then `CC(Oc1cc(-c2ccc(C(=O)NCCN3CCCCC3)cc2)cnc1N)c1c(Cl)ccc(F)c1Cl` [Example L-6], with 69%.

`CC(CO)NC(=O)c1ccc(-c2cnc(N)c(OC(C)c3c(Cl)ccc(F)c3Cl)c2)cc1` [Example L-7]: the inhibition at 0.05 µM amounted to 66%. With `CC(Oc1cc(-c2ccc(C(=O)NCCCN3CCCCC3C)cc2)cnc1N)c1c(Cl)ccc(F)c1Cl` [Example L-8], the inhibition at 0.05 µM was determined as 72%. With `CC(Oc1cc(-c2ccc(C(=O)NCc3cccnc3)cc2)cnc1N)c1c(Cl)ccc(F)c1Cl` [Example L-9], the inhibition at 0.05 µM was 64%. Same read-out and setting: then `CC(Oc1cc(-c2ccc(C(=O)NCc3ccccn3)cc2)cnc1N)c1c(Cl)ccc(F)c1Cl` [Example L-10], with 67%. Still for that read-out and setting: then `CC(Oc1cc(-c2ccc(C(=O)NCCc3ccccn3)cc2)cnc1N)c1c(Cl)ccc(F)c1Cl` [Example L-11], with 67%; and `CC(Oc1cc(-c2ccc(C(=O)NCCOCCO)cc2)cnc1N)c1c(Cl)ccc(F)c1Cl` [Example L-13], with 76%. Regarding `CC(Oc1cc(-c2ccc(C(=O)N[C@H]3CCN(Cc4ccccc4)C3)cc2)cnc1N)c1c(Cl)ccc(F)c1Cl` (stereo partly drawn) [Example L-14], the inhibition at 0.05 µM came to 72%. On the same count and under the same terms, then `CC(Oc1cc(-c2ccc(C(=O)N[C@@H]3CCN(Cc4ccccc4)C3)cc2)cnc1N)c1c(Cl)ccc(F)c1Cl` (stereo partly drawn) [Example L-15], with 67%. Take `CC(Oc1cc(-c2ccc(C(=O)NCCCN(C)C)cc2)cnc1N)c1c(Cl)ccc(F)c1Cl` [Example L-16]: the inhibition at 0.05 µM is 83%. On the same count and under the same terms, with `CC(Oc1cc(-c2ccc(C(=O)NC3CCN(Cc4ccccc4)C3)cc2)cnc1N)c1c(Cl)ccc(F)c1Cl` [Example L-17] the figure was 76%; with `CC(Oc1cc(-c2ccc(C(=O)NCCc3ccccc3)cc2)cnc1N)c1c(Cl)ccc(F)c1Cl` [Example L-18], 66%. The same measure, in the same setting: then `C[C@H](Oc1cc(-c2ccc(C(=O)N[C@H](CO)c3ccccc3)cc2)cnc1N)c1c(Cl)ccc(F)c1Cl` [Example L-20], with 69%. On the same count and under the same terms, with `CC(Oc1cc(-c2ccc(C(=O)NCC(N)=O)cc2)cnc1N)c1c(Cl)ccc(F)c1Cl` [Example L-21] the figure was 86%; with `COc1cc(CNC(=O)c2ccc(-c3cnc(N)c(OC(C)c4c(Cl)ccc(F)c4Cl)c3)cc2)ccc1O` [Example L-22], 64%.

Turning to `CC(=O)NCCNC(=O)c1ccc(-c2cnc(N)c(OC(C)c3c(Cl)ccc(F)c3Cl)c2)cc1` [Example L-24], the inhibition at 0.05 µM was 71%. On the same count and under the same terms, with `CC(Oc1cc(-c2ccc(C(=O)NCC(C)(C)CN(C)C)cc2)cnc1N)c1c(Cl)ccc(F)c1Cl` [Example L-25] the figure was 77%.

Regarding `CC(Oc1cc(-c2ccc(C(=O)N3CCC(N(C)C)CC3)cc2)cnc1N)c1c(Cl)ccc(F)c1Cl` [Example L-26], the inhibition at 0.05 µM came out at 92%. With `CC(Oc1cc(-c2ccc(C(=O)NCc3ccncc3)cc2)cnc1N)c1c(Cl)ccc(F)c1Cl` [Example L-27], the inhibition at 0.05 µM stood at 74%. Still for that read-out and setting: then `CC(Oc1cc(-c2ccc(C(=O)N3CCC(O)(c4ccccc4)CC3)cc2)cnc1N)c1c(Cl)ccc(F)c1Cl` [Example L-28], with 64%; and `CC(Oc1cc(-c2ccc(C(=O)N3CCC(O)CC3)cc2)cnc1N)c1c(Cl)ccc(F)c1Cl` [Example L-29], with 86%; and `CCN1CCCC1CNC(=O)c1ccc(-c2cnc(N)c(OC(C)c3c(Cl)ccc(F)c3Cl)c2)cc1` [Example L-30], with 80%. For the compound `CC(Oc1cc(-c2ccc(C(=O)N(C)C3CCN(C)CC3)cc2)cnc1N)c1c(Cl)ccc(F)c1Cl` [Example L-32], the inhibition at 0.05 µM was found to be 92%.

Take `CC(Oc1cc(-c2ccc(C(=O)N3CCN(c4ccccn4)CC3)cc2)cnc1N)c1c(Cl)ccc(F)c1Cl` [Example L-33]: the inhibition at 0.05 µM was determined as 63%. Turning to `COc1ccc(CNC(=O)c2ccc(-c3cnc(N)c(OC(C)c4c(Cl)ccc(F)c4Cl)c3)cc2)cc1OC` [Example L-34], the inhibition at 0.05 µM is 62%. The same measure, in the same setting: with `CC(Oc1cc(-c2ccc(C(=O)NCCc3ccccc3F)cc2)cnc1N)c1c(Cl)ccc(F)c1Cl` [Example L-35] the figure was 55%; with `CC(Oc1cc(-c2ccc(C(=O)N3CCN(Cc4ccccc4)CC3)cc2)cnc1N)c1c(Cl)ccc(F)c1Cl` [Example L-36], 62%; with `CC(Oc1cc(-c2ccc(C(=O)N(C)CCc3ccccn3)cc2)cnc1N)c1c(Cl)ccc(F)c1Cl` [Example L-37], 75%. On the same count and under the same terms, with `CC(C)NC(=O)CN1CCN(C(=O)c2ccc(-c3cnc(N)c(OC(C)c4c(Cl)ccc(F)c4Cl)c3)cc2)CC1` [Example L-38] the figure was 86%.

On to `CC(Oc1cc(-c2ccc(C(=O)N3CCCN(C)CC3)cc2)cnc1N)c1c(Cl)ccc(F)c1Cl` [Example L-39], for which the inhibition at 0.05 µM amounted to 77%. The same measure, in the same setting: with `CC(Oc1cc(-c2ccc(C(=O)N3CCC(Cc4ccccc4)CC3)cc2)cnc1N)c1c(Cl)ccc(F)c1Cl` [Example L-40] the figure was 55%. Still for that read-out and setting: with `CCN(Cc1ccncc1)C(=O)c1ccc(-c2cnc(N)c(OC(C)c3c(Cl)ccc(F)c3Cl)c2)cc1` [Example L-41] the figure was 84%. `CCN(CC)CCN(C)C(=O)c1ccc(-c2cnc(N)c(OC(C)c3c(Cl)ccc(F)c3Cl)c2)cc1` [Example L-43]: the inhibition at 0.05 µM came out at 85%.

For the compound `CCN(CC)C(=O)C1CCCN(C(=O)c2ccc(-c3cnc(N)c(OC(C)c4c(Cl)ccc(F)c4Cl)c3)cc2)C1` [Example L-44], the inhibition at 0.05 µM stood at 55%. On the same count and under the same terms, then `CC(Oc1cc(-c2ccc(C(=O)N3CCN(CC(=O)N4CCCC4)CC3)cc2)cnc1N)c1c(Cl)ccc(F)c1Cl` [Example L-46], with 78%; and `C[C@H](Oc1cc(-c2ccc(C(=O)N3CCCC[C@@H]3CCO)cc2)cnc1N)c1c(Cl)ccc(F)c1Cl` [Example L-47], with 83%. For `CC(Oc1cc(-c2ccc(C(=O)N3CCN(CCCO)CC3)cc2)cnc1N)c1c(Cl)ccc(F)c1Cl` [Example L-49], the inhibition at 0.05 µM stood at 74%. Same read-out and setting: with `CC(Oc1cc(-c2ccc(C(=O)NCC(C)(C)CO)cc2)cnc1N)c1c(Cl)ccc(F)c1Cl` [Example L-50] the figure was 73%; with `C[C@H](Oc1cc(-c2ccc(C(=O)N[C@H]3CC[C@H](O)CC3)cc2)cnc1N)c1c(Cl)ccc(F)c1Cl` [Example L-51], 73%; with `CCOC(=O)N1CCC(NC(=O)c2ccc(-c3cnc(N)c(OC(C)c4c(Cl)ccc(F)c4Cl)c3)cc2)CC1` [Example L-52], 66%. On to `COCCCNC(=O)c1ccc(-c2cnc(N)c(OC(C)c3c(Cl)ccc(F)c3Cl)c2)cc1` [Example L-54], for which the inhibition at 0.05 µM came out at 95%. With `CC(O)CNC(=O)c1ccc(-c2cnc(N)c(OC(C)c3c(Cl)ccc(F)c3Cl)c2)cc1` [Example L-56], the inhibition at 0.05 µM worked out at 83%.

For the compound `Cc1cnc(CNC(=O)c2ccc(-c3cnc(N)c(OC(C)c4c(Cl)ccc(F)c4Cl)c3)cc2)cn1` [Example L-57], the inhibition at 0.05 µM turned out to be 76%. The same measure, in the same setting: with `CC(Oc1cc(-c2ccc(C(=O)NCC(F)(F)F)cc2)cnc1N)c1c(Cl)ccc(F)c1Cl` [Example L-58] the figure was 78%; with `CC(Oc1cc(-c2ccc(C(=O)NCC3(O)CCCCC3)cc2)cnc1N)c1c(Cl)ccc(F)c1Cl` [Example L-59], 81%; with `CC(Oc1cc(-c2ccc(C(=O)NCCCN3CCCC3=O)cc2)cnc1N)c1c(Cl)ccc(F)c1Cl` [Example L-60], 83%. On the same count and under the same terms, then `CC(Oc1cc(-c2ccc(C(=O)NCCc3ccc(O)cc3)cc2)cnc1N)c1c(Cl)ccc(F)c1Cl` [Example L-61], with 71%.
